Laboratory results as given in patent publication US4337199A, “Antibiotic β-lactam compounds, production thereof, and their use as antimicrobial agent” (Sanraku-Ocean Co., Ltd., priority 1978, dated 1982).
≈ marks a conversion by molar mass, not a printed value.

Legend:
Test in all cases: minimum inhibitory concentration, agar dilution assay
Type in all cases: cell-based
Alcaligenes faecalis A 1 = conditions: A1, agar dilution, 35° C., 20 hours, read-out: minimum inhibitory concentration
Experimental: (§1) The antibiotic activities shown in Tables I-1 to I-8 above were determined in the following manner.
(§2) The minimum inhibitory concentrations of the compounds of formula (I-a-1) or (I-b-1) in Tables I-1 to I-7 and the known compounds in Table I-8 on the various microorganisms shown in the above tables were measured by an agar dilution assay method using a brain heart infusion agar medium "Difco" (a product of Difco Laboratories Inc.)
(§3) A sample of the test compound was dissolved in sterile distilled water and diluted to prepare a two-fold dilution series of the compound solution. In a petri plate of 9 cm diameter, 1 ml of the compound solution was added to 9 ml of molten sterile heart infusion agar medium (Difco Laboratories Inc.) at about 60° C. to prepare the compound-containing agar plate. An overnight culture of each test organism indicated in the above table which was prepared by stationary cultivation in Trypto-Soy broth (Eiken Chemi. Co., Ltd.) at 35° C. for 18 to 20 hours, was diluted with the Trypto-Soy broth to give approximately 10^8 cells/ml and the diluted inoculum was inoculated onto the compound-containing agar plates. After cultivating the plates at 35° C. for 20 hours, the growth of the organism was observed. The minimum concentration of the compound at which no growth of the microorganism was noted was determined, and defined as the minimum inhibitory concentration of the test compound.

[1] = system: Bacillus subtilis ATCC 6633; conditions: ATCC6633, agar dilution, 35° C., 20 hours, read-out: minimum inhibitory concentration
Experimental: as §1, §2, §3

[2] = system: Citrobacter freundii GN 346; conditions: GN346, agar dilution, 35° C., 20 hours, read-out: minimum inhibitory concentration
Experimental: as §1, §2, §3

[3] = system: Comamonas terrigena B-996; conditions: B996, agar dilution, 35° C., 20 hours, read-out: minimum inhibitory concentration
Experimental: as §1, §2, §3

[4] = system: Enterobacter aerogenes E19; conditions: Klebsiella aerogenes, E19; agar dilution, 35° C., 20 hours; read-out: minimum inhibitory concentration
Experimental: as §1, §2, §3

Enterobacter cloacae 45 = conditions: Enterobacter cloacae, 45; agar dilution, 35° C., 20 hours; read-out: minimum inhibitory concentration
Experimental: as §1, §2, §3

Enterobacter sp. E8 = conditions: SP.E8, agar dilution, 35° C., 20 hours, read-out: minimum inhibitory concentration
Experimental: as §1, §2, §3

Escherichia coli K-12 = conditions: K12, agar dilution, 35° C., 20 hours, read-out: minimum inhibitory concentration
Experimental: as §1, §2, §3

Escherichia coli RGN 823 = conditions: RGN823, agar dilution, 35° C., 20 hours, read-out: minimum inhibitory concentration
Experimental: as §1, §2, §3

[5] = system: Klebsiella pneumoniae K-13; conditions: K13, agar dilution, 35° C., 20 hours, read-out: minimum inhibitory concentration
Experimental: as §1, §2, §3

Proteus mirabilis P6 = conditions: P6, agar dilution, 35° C., 20 hours, read-out: minimum inhibitory concentration
Experimental: as §1, §2, §3

Proteus rettgeri P7 = conditions: Providencia rettgeri, P7; agar dilution, 35° C., 20 hours; read-out: minimum inhibitory concentration
Experimental: as §1, §2, §3

Proteus sp. P22 = conditions: agar dilution, 35° C., 20 hours; read-out: minimum inhibitory concentration
Experimental: as §1, §2, §3

Proteus vulgaris GN76 = conditions: GN76, agar dilution, 35° C., 20 hours, read-out: minimum inhibitory concentration
Experimental: as §1, §2, §3

Providencia sp. P8 = conditions: SP.P8, agar dilution, 35° C., 20 hours, read-out: minimum inhibitory concentration
Experimental: as §1, §2, §3

[6] = system: Pseudomonas aeruginosa IFO3445; conditions: IFO3445, agar dilution, 35° C., 20 hours, read-out: minimum inhibitory concentration
Experimental: as §1, §2, §3

[7] = system: Pseudomonas aeruginosa NCTC10490; conditions: NCTC10490, agar dilution, 35° C., 20 hours, read-out: minimum inhibitory concentration
Experimental: as §1, §2, §3

Sarcina lutea = conditions: Micrococcus luteus; agar dilution, 35° C., 20 hours; read-out: minimum inhibitory concentration
Experimental: as §1, §2, §3

Serratia marcescens S18 = conditions: S18, agar dilution, 35° C., 20 hours, read-out: minimum inhibitory concentration
Experimental: as §1, §2, §3

Serratia marcescens T55 = conditions: T55, agar dilution, 35° C., 20 hours, read-out: minimum inhibitory concentration
Experimental: as §1, §2, §3

[8] = system: Staphylococcus aureus FDA 209P; conditions: FDA209P, agar dilution, 35° C., 20 hours, read-out: minimum inhibitory concentration
Experimental: as §1, §2, §3

[9] = system: Staphylococcus aureus Russell; conditions: agar dilution, 35° C., 20 hours, read-out: minimum inhibitory concentration
Experimental: as §1, §2, §3

[10] = system: Staphylococcus aureus Smith; conditions: agar dilution, 35° C., 20 hours, read-out: minimum inhibitory concentration
Experimental: as §1, §2, §3

[11] = system: Staphylococcus epidermidis; conditions: agar dilution, 35° C., 20 hours, read-out: minimum inhibitory concentration
Experimental: as §1, §2, §3

| SMILES | MIC (Alcaligenes faecalis A 1) [µg/mL] | MIC [1] [µg/mL] | MIC [2] [µg/mL] | MIC [3] [µg/mL] | MIC [4] [µg/mL] | MIC (Enterobacter cloacae 45) [µg/mL] | MIC (Enterobacter sp. E8) [µg/mL] | MIC (Escherichia coli K-12) [µg/mL] | MIC (Escherichia coli RGN 823) [µg/mL] | MIC [5] [µg/mL] | MIC (Proteus mirabilis P6) [µg/mL] | MIC (Proteus rettgeri P7) [µg/mL] | MIC (Proteus sp. P22) [µg/mL] | MIC (Proteus vulgaris GN76) [µg/mL] | MIC (Providencia sp. P8) [µg/mL] | MIC [6] [µg/mL] | MIC [7] [µg/mL] | MIC (Sarcina lutea) [µg/mL] | MIC (Serratia marcescens S18) [µg/mL] | MIC (Serratia marcescens T55) [µg/mL] | also measured |
| --- | --- | --- | --- | --- | --- | --- | --- | --- | --- | --- | --- | --- | --- | --- | --- | --- | --- | --- | --- | --- | --- |
| CC(O)[C@H]1C(=O)N2C(C(=O)O)=C(Sc3ccccc3)C[C@H]12 (stereo partly drawn) | 25 (≈ 81.9 µM) | 6.25 (≈ 20.5 µM) | > 100 | 0.05 (≈ 0.164 µM) | > 100 | > 100 | 100 (≈ 327 µM) | 50 (≈ 164 µM) | 50 (≈ 164 µM) | > 100 | 100 (≈ 327 µM) | > 100 | > 100 | > 100 | 50 (≈ 164 µM) | 25 (≈ 81.9 µM) | 6.25 (≈ 20.5 µM) | 0.05 (≈ 0.164 µM) | > 100 | > 100 | MIC [8]: 0.05 µg/mL (≈ 0.164 µM); MIC [9]: 0.78 µg/mL (≈ 2.55 µM); MIC [10]: 1.56 µg/mL (≈ 5.11 µM); MIC [11]: 0.39 µg/mL (≈ 1.28 µM) |
| CC(O)C1C(=O)N2C(C(=O)O)=C(Sc3ccccc3)CC12 (stereo not drawn) | 1.56 (≈ 5.11 µM) | 0.013 (≈ 0.0426 µM) | 100 (≈ 327 µM) | < 0.007 | 12.5 (≈ 40.9 µM) | 12.5 (≈ 40.9 µM) | 3.13 (≈ 10.3 µM) | 3.13 (≈ 10.3 µM) | 25 (≈ 81.9 µM) | > 100 | 12.5 (≈ 40.9 µM) | 100 (≈ 327 µM) | > 100 | > 100 | 3.13 (≈ 10.3 µM) | 50 (≈ 164 µM) | 50 (≈ 164 µM) | < 0.007 | 100 (≈ 327 µM) | 100 (≈ 327 µM) | MIC [8]: < 0.007 µg/mL; MIC [9]: 0.013 µg/mL (≈ 0.0426 µM); MIC [10]: 0.1 µg/mL (≈ 0.327 µM); MIC [11]: 0.013 µg/mL (≈ 0.0426 µM) |
| CCC1C(=O)N2C(C(=O)O)=C(Sc3ncccn3)CC12 (stereo not drawn) [Example 61, 3-(2-pyrimidinylthio)-6-ethyl-7-oxo-1-azabicyclo[3.2.0]hept-2-ene-2-carboxylic acid] | 0.2 (≈ 0.687 µM) | < 0.012 | 25 (≈ 85.8 µM) | < 0.012 | 12.5 (≈ 42.9 µM) | 25 (≈ 85.8 µM) | 3.13 (≈ 10.7 µM) | 1.56 (≈ 5.35 µM) | 3.13 (≈ 10.7 µM) | 12.5 (≈ 42.9 µM) | 3.13 (≈ 10.7 µM) | 3.13 (≈ 10.7 µM) | 12.5 (≈ 42.9 µM) | 6.25 (≈ 21.5 µM) | 0.78 (≈ 2.68 µM) | 12.5 (≈ 42.9 µM) | 12.5 (≈ 42.9 µM) | < 0.012 | 12.5 (≈ 42.9 µM) | 25 (≈ 85.8 µM) | MIC [8]: < 0.012 µg/mL; MIC [9]: < 0.012 µg/mL; MIC [10]: 0.024 µg/mL (≈ 0.0824 µM); MIC [11]: 0.024 µg/mL (≈ 0.0824 µM) |
| CC(C)C1C(=O)N2C(C(=O)O)=C(Sc3ncccn3)CC12 (stereo not drawn) [Example 62, 3-(2-Pyrimidinylthio)-6-isopropyl-7-oxo-1-azabicyclo[3.2.0]hept-2-ene-2-carboxylic acid] | 0.39 (≈ 1.28 µM) | 0.013 (≈ 0.0426 µM) | 50 (≈ 164 µM) | 0.013 (≈ 0.0426 µM) | > 100 | > 100 | 12.5 (≈ 40.9 µM) | 6.25 (≈ 20.5 µM) | 3.13 (≈ 10.3 µM) | 25 (≈ 81.9 µM) | 3.13 (≈ 10.3 µM) | 3.13 (≈ 10.3 µM) | 12.5 (≈ 40.9 µM) | 12.5 (≈ 40.9 µM) | 1.56 (≈ 5.11 µM) | 25 (≈ 81.9 µM) | 25 (≈ 81.9 µM) | 0.013 (≈ 0.0426 µM) | 25 (≈ 81.9 µM) | > 100 | MIC [8]: 0.007 µg/mL (≈ 0.0229 µM); MIC [9]: 0.013 µg/mL (≈ 0.0426 µM); MIC [10]: 0.025 µg/mL (≈ 0.0819 µM); MIC [11]: 0.05 µg/mL (≈ 0.164 µM) |
